Laboratory results reported in patent US20230414735A1, “NEOANTIGENS AND METHODS OF THEIR USE” (priority 2016, published 2023).
Like-named read-outs stand apart in the source and are kept apart here. Where no end group is shown, it is not given here.

Target: HLA class I molecule
Assay: HLA class I peptide binding affinity assay (inhibition of 125I-radiolabeled probe peptide binding to purified HLA)
Parameters: species or system human
Details: read-out: Observed Affinity (IC50, (nM))
Protocol: Epstein-Barr virus (EBV)-transformed homozygous cell lines, fibroblasts, CIR, or 721.22 transfectants are used as sources of HLA class I molecules. […] HLA molecules are purified from lysates by affinity chromatography. The lysates are passed over a column of Sepharose CL-4B beads coupled to an appropriate antibody. […] A 1/25 volume of 2.0 M Tris, pH 6.8, is added to the eluate to reduce the pH to […]. Eluates are then concentrated by centrifugation in Centriprep 30 concentrators (Amicon, Beverly, MA). Protein content is evaluated by a BCA protein assay (Pierce Chemical Co., Rockford, IL) and confirmed by SDS-PAGE.
Following incubation, MHC-peptide complexes are separated from free peptide by gel filtration on 7.8 mm×15 cm TSK200 columns (TosoHaas 16215, Montgomeryville, PA). Because the large size of the radiolabeled peptide used for the DRB1*1501 (DR2w2(31) assay makes separation of bound from unbound peaks more difficult under these conditions, all DRB1*1501 (DR2w2(31) assays were performed using a 7.8 mm×30 cm TSK2000 column eluted at 0.6 mLs/min. The eluate from the TSK columns is passed through a Beckman 170 radioisotope detector, and radioactivity is plotted and integrated using a Hewlett-Packard 3396A integrator, and the fraction of peptide bound is determined.
Radiolabeled peptides are iodinated using the chloramine-T method. […] All subsequent inhibition and direct binding assays are performed using these HLA concentrations.
Since under these conditions [label]<[HLA] and IC50≥[HLA], the measured IC50 values are reasonable approximations of the true KD values. […] For database purposes, and inter-experiment comparisons, relative binding values are compiled. These values can subsequently be converted back into IC50 nM values by dividing the IC50 nM of the positive controls for inhibition by the relative binding of the peptide of interest.
HLA binding assays were used to evaluate either the affinity of interaction of a given epitope with a selected HLA molecule or the stability.
The measurements are plotted against the predicted affinity in FIG. 1.

With CC[C@H](C)[C@H](NC(=O)[C@H](CC(C)C)NC(=O)[C@H](CCC(N)=O)NC(=O)[C@@H](NC(=O)[C@@H](NC(=O)[C@H](CO)NC(=O)[C@@H](NC(=O)[C@H](CC(C)C)NC(=O)[C@@H](N)CS)[C@@H](C)O)[C@@H](C)O)C(C)C)C(=O)N[C@@H](CCSC)C(=O)O the IC50 (allele A01.01) was 11000 nM and the IC50 (allele A02.01) was 716 nM.

Molecule CC(C)C[C@H](NC(=O)[C@H](CO)NC(=O)[C@H](CCCCN)NC(=O)[C@H](CC(C)C)NC(=O)[C@@H](NC(=O)[C@H](CO)NC(=O)[C@@H]1CCCN1C(=O)[C@H](CC(C)C)NC(=O)[C@@H](N)Cc1ccccc1)[C@@H](C)O)C(=O)O has an IC50 (allele A02.01) of 21 nM and an IC50 (allele B08.01) of 1970 nM.

Work on CC[C@H](C)[C@H](N)C(=O)N[C@H](C(=O)N[C@H](C(=O)N[C@@H](CCC(=O)O)C(=O)N[C@@H](Cc1ccccc1)C(=O)N[C@@H](CCSC)C(=O)N[C@H](C(=O)N[C@@H](Cc1ccc(O)cc1)C(=O)NCC(=O)N[C@@H](CC(N)=O)C(=O)O)[C@@H](C)O)[C@@H](C)CC)[C@@H](C)CC yielded an IC50 (allele A02.01) of 1550 nM.

CC[C@H](C)[C@H](N)C(=O)N[C@@H](CC(C)C)C(=O)N[C@@H](CC(=O)O)C(=O)N[C@H](C(=O)N[C@@H](C)C(=O)NCC(=O)N[C@@H](CCCCN)C(=O)N[C@@H](CCC(=O)O)C(=O)N[C@@H](CCC(=O)O)C(=O)N[C@@H](Cc1ccc(O)cc1)C(=O)O)[C@@H](C)O gave an IC50 (allele A01.01) of 14.3 nM.

CC[C@H](C)[C@H](NC(=O)[C@@H]1CCCN1C(=O)[C@H](CC(C)C)NC(=O)[C@@H](N)CC(C)C)C(=O)N1CCC[C@H]1C(=O)N1CCC[C@H]1C(=O)N[C@@H](CC(C)C)C(=O)N[C@@H](CO)C(=O)N1CCC[C@H]1C(=O)N[C@@H](CO)C(=O)O gave an IC50 (allele A02.01) of 449 nM.

With CSCC[C@H](N)C(=O)N[C@@H](C)C(=O)N[C@@H](CC(N)=O)C(=O)NCC(=O)N[C@@H](CO)C(=O)N[C@@H](CC(C)C)C(=O)N[C@@H](CC(C)C)C(=O)N[C@@H](CC(N)=O)C(=O)N[C@@H](Cc1ccc(O)cc1)C(=O)O the IC50 (allele A01.01) was 439 nM.

AFSGEYIPTV gave an IC50 (allele A02.01) of 781 nM.

AIQPVLWTT gave an IC50 (allele A02.01) of 8.1 nM.

Work on ALAPTLTHM yielded an IC50 (allele A02.01) of 59 nM.

For ALAPTLTHML, the IC50 (allele A02.01) was 39 nM.

With ALEEKKGNYV the IC50 (allele A02.01) was 141 nM.

ALFFFFFET showed an IC50 (allele A02.01) of 471 nM.

ALMSAMTTS gave an IC50 (allele A02.01) of 139 nM.

Work on ALQPLQPHA yielded an IC50 (allele A02.01) of 604 nM.

For ALWECSLPQA, the IC50 (allele A02.01) was 9 nM.

AMTTSSSQK was tested, and the IC50 (Allele A11.01) was 162 nM.

Molecule AQAGVQWRSL has an IC50 (allele A02.01) of 670 nM.

Work on CLSFLSSWDY yielded an IC50 (allele A01.01) of 987 nM.

Molecule FALCGFWQI has an IC50 (allele A02.01) of 0.4 nM.

FELLPIPPL was tested, and the IC50 (allele A02.01) was 553 nM.

With FELLSTPPL the IC50 (allele A02.01) was 225 nM and the IC50 (allele B08.01) was 3180 nM.

FFFETKSCSV gave an IC50 (allele A02.01) of 61.2 nM.

With FFFSVIFST the IC50 (allele A02.01) was 4560 nM.

Work on FILMELMAGG yielded an IC50 (allele A02.01) of 1580 nM.

With FKLFSCLSFL the IC50 (allele A02.01) was 663 nM.

Work on FLLALWECS yielded an IC50 (allele A02.01) of 93.2 nM.

For FLSSWDYRRM, the IC50 (allele A02.01) was 324 nM.

Molecule FQNGKMALS [FQNGKMALS] has an IC50 (allele A02.01) of 3280 nM.

FVMSDTTYKI was tested, and the IC50 (allele A02.01) was 62.4 nM.

With GLSISCTTL the IC50 (allele A02.01) was 114 nM.

With GMNQRPILT the IC50 (allele A02.01) was 3030 nM.

For GMNWRPILT, the IC50 (allele A02.01) was 1130 nM.

For GSNEVTTRY, the IC50 (allele A01.01) was 606 nM.

HMNIANLLGA was tested, and the IC50 (allele A02.01) was 430 nM.

IANLLGACTI showed an IC50 (allele A02.01) of 6420 nM.

Molecule IIEFMTYGNL has an IC50 (allele A02.01) of 9700 nM.

IIEYCFYGDL was tested, and the IC50 (allele A02.01) was 1090 nM.

IIIEFMTYG was tested, and the IC50 (allele A02.01) was 779 nM.

Work on ILDTAGHEEY yielded an IC50 (allele A01.01) of 64.2 nM.

Molecule ILDTAGLEEY has an IC50 (allele A01.01) of 8.6 nM.

ILDTAGREEY gave an IC50 (allele A01.01) of 7 nM.

With ILIRKAMTV the IC50 (allele A02.01) was 19.5 nM.

Molecule ILLPEDTPPL has an IC50 (allele A02.01) of 6.7 nM.

ILMELMAGGD showed an IC50 (allele A02.01) of 3450 nM.

IMSLWGLVS gave an IC50 (allele A02.01) of 7320 nM.

In the case of ITAFFFCWI, the IC50 (allele A02.01) is reported as 7490 nM.

Work on ITAFFLLDI yielded an IC50 (allele A02.01) of 78.7 nM.

IVSRTLLLV gave an IC50 (allele A02.01) of 12.7 nM.

Work on KISNWSLKK yielded an IC50 (Allele A11.01) of 9.8 nM.

For KITEQEKDFL, the IC50 (allele A02.01) was 1400 nM.

Work on KKLMLLRLNL yielded an IC50 (allele A02.01) of 289 nM.

With KLFSCLSFLS the IC50 (allele A02.01) was 0.6 nM.

In the case of KQWSSVTSL, the IC50 (allele A02.01) is reported as 26.5 nM.

For KSLVRLSSCV, the IC50 (allele A02.01) was 280 nM.

LATEKSRWS gave an IC50 (allele A02.01) of 61000 nM and an IC50 (allele B08.01) of 37000 nM.

LATEKSRWSG was tested, and the IC50 (allele A02.01) was 23300 nM and the IC50 (allele B08.01) was 46600 nM.

With LIMQLMPFG the IC50 (allele A02.01) was 3510 nM.

With LIVSRTLLLV the IC50 (allele A02.01) was 10900 nM.

With LKKLRSPL the IC50 (allele B08.01) was 0.6 nM.

Work on LLDILDTAGL yielded an IC50 (allele A02.01) of 716 nM.

In the case of LLGRNSFEVC, the IC50 (allele A02.01) is reported as 2080 nM.
